Patent US20090170801A1 (Beijing Century Biocom Pharmaceutical Technology Co. Ltd., priority 2006, published 2009)

Tests used:
decapitated mice = assay: Breathing time, breathing frequency, brain index and brain water content in decapitated mice; format: in vivo, ICR mice; conditions: 2 mg/kg tail i.v.
Method: The model group was administrated normal salt. At 15 minutes after administration, the mice were decapitated by a pair of scissors. The mouth breathing time, breathing frequency and brain water content were recorded and compared with other groups. Whole brains were collected. After the wet weight was obtained, they were dried in an oven at 100° C. for 24 hours. The average value was taken to calculate brain water content: brain water content (%)=[…]. Brain index: brain index=brain wet weight (g)/body weight (g)×100%.

brain of ischemic mice = assay: Cerebral ischemia in mice with common carotid artery ligation and reperfusion (brain LDH and SOD); format: in vivo; conditions: 2 mg/kg tail i.v.
Method: Grouped mice were respectively administered test substance, nimodipine or normal salt by tail intravenous injection. After 15 minutes, the mice were anesthetized with 3.5% chloral hydrate, fixed in the back. The right and left common carotid artery and vagus nerve were exposed, and 4-0 suture was inserted under the bilateral carotid artery. The suture was tightened to block blood flow for 5 minutes. Then the line was loosened to restore blood flow for 10 minutes. The operation was repeated three times, and an ischemia-reperfusion model in mice was established. After the last reperfusion, the mice were decapitated and brain collected. In the control group, only the bilateral carotid arteries were exposed, without a suture being inserted.

Compound `COCCOC(=O)C1=C(C)NC(C)=C(C(=O)OC(C)C)C1c1cccc([N+](=O)[O-])c1` (stereo not drawn) [Nimodipine, nimodipine] has a Brain water content (decapitated mice) of 75.8 ± 1.0 %, an LDH (brain of ischemic mice) of 11.3 ± 6.6 U/mg and an SOD (brain of ischemic mice) of 144.77 ± 21.61 U/mg.
